The subject of one assay is Trichoderma viride. Kind of assay: MIC on agar, Trichoderma viride. Format: cell-based. The conditions noted are these: 336 h, beerwort/peptone agar, 28° C., 2 weeks. How it is done:
(§1) N-(Dichlorofluoromethylthio)-3,4-dimethylmaleimide is added in concentrations of 0.1 mg/l to 5,000 mg/l to an agar prepared from beerwort and peptone. After storage at 28° C. and 60 to 70% relative atmospheric humidity for 2 weeks, the MIC is determined. The MIC is the lowest concentration of active compound at which no growth at all of the species of microbe used takes place, and is given in the following table.

Another assay has as its system Aureobasidium pullulans. In words: MIC on agar, Aureobasidium pullulans. Format: cell-based. The conditions noted are these: 336 h, beerwort/peptone agar, 28° C., 2 weeks. As to the method: as §1
The subject of a further assay is Polyporus versicolor. Kind of assay: MIC on agar, Polyporus versicolor. The conditions noted are these: Trametes versicolor, 336 h, beerwort/peptone agar, 28° C., 2 weeks. Type of assay: cell-based. How it is done: as §1
The subject of the next assay is Sclerophoma pityophila. Kind of assay: MIC on agar, Sclerophoma pityophila. Format: cell-based. The conditions noted are these: Sydowia polyspora, 336 h, beerwort/peptone agar, 28° C., 2 weeks. How it is done: as §1
A further assay relates to Chaetomium globosum. Kind of assay: MIC on agar, Chaetomium globosum. Type of assay: cell-based. To be noted: 336 h, beerwort/peptone agar, 28° C., 2 weeks. As to the method: as §1
Assay [1] relates to Aspergillus niger, Aureobasidium pullulans, Alternaria tenuis, Penicillim citrinum, Stachybotrys atra, Paecilamyces varioti, Cladosporium herbarum, Aspergillus …. In words: Test as a paint fungicide (mould-resistance of paint films, Report 219 of the Defense Standards Laboratories). To be noted: alkyd resin lacquer paint containing 0.8% of compound based on weight of film; also after ageing (running water 24° C. 24 h, fresh air 40° to 60° C. 8 days, dry Xenon test 110 h); evaluated after 3 weeks at 28° to 30° C. How it is done: The testing is carried out in accordance with the method in Report 219 of the Defense Standards Laboratories Maribyrnong/Australia, as follows: A smooth card is coated on both sides with the paint to be tested and dried at room temperature for 8 days. For ageing, part of the paint film is kept in running water of 24° C. for 24 hours, or aerated with fresh air of 40° to 60° C. for 8 days, or subjected to a dry Xenon test for 110 hours. 5×5 cm sections of the samples thus prepared are placed individually on a glucose nutrient medium in Petri dishes and contaminated with a spore suspension of the following fungi: Aspergillus niger, Aureobasidium pullulans, Alternaria tenuis, Penicillim citrinum, Stachybotrys atra, Paecilamyces varioti, Cladosporium herbarum, Aspergillus ustus and Aspergillus flavus.
The contaminated dishes are kept at 28° to 30° C. and 90 to 95% relative atmospheric humidity, and are evaluated after 3 weeks. Paint films are regarded as mould-resistant if the samples remain free from fungi after these tests.
A commercially available lacquer paint based on alkyd resin is tested for mould-resistance by the above-mentioned test method.

The test system of another assay is Lentinus tigrinus. Kind of assay: MIC on agar, Lentinus tigrinus. Format: cell-based. To be noted: 336 h, beerwort/peptone agar, 28° C., 2 weeks. How it is done:
as §1

The subject of a further assay is Penicillium glaucum. In words: MIC on agar, Penicillium glaucum. Format: cell-based. The conditions noted are these: 336 h, beerwort/peptone agar, 28° C., 2 weeks. How it is done: as §1
For another assay, the system named is slime organisms. In words: Action against slime organisms. Format: cell-based. To be noted: 504 h; slime organisms (about 10^6 germs/ml), Allens nutrient solution, room temperature, 3 weeks. As to the method:
N-(Dichlorofluoromethylthio)-3,4-dimethylmaleimide (dissolved in a little acetone) is used in concentrations of in each case 0.1 to 100 mg/l in Allens nutrient solution (Arch. Mikrobiol. 17, 34 to 53 (1952)), which contains, in 4 l of sterile water, 0.2 g of ammonium chloride, 4.0 g of sodium nitrate, 1.0 g of dipotassium hydrogen phosphate, 0.2 g of calcium chloride, 2.05 g of magnesium sulphate, 0.02 g of iron chloride and 1% of caprolactam. Shortly beforehand, the nutrient solutions are infected with slime organisms (about 10^6 germs/ml) which have been isolated from spinning water circulations used in the production of polyamide. Nutrient solutions which contain the minimum inhibitory concentration (MIC) or higher concentrations of active compound are still completely clear after culture at room temperature for 3 weeks, that is to say the marked increase in microbes and slime formation noticeable after 3 to 4 days in nutrient solutions containing no active compound are absent.

The next assay relates to Coniophora puteana. Kind of assay: MIC on agar, Coniophora puteana. Type of assay: cell-based. The conditions noted are these: 336 h, beerwort/peptone agar, 28° C., 2 weeks. How it is done: as §1
For a further assay, the system named is Alternaria tenuis. In words: MIC on agar, Alternaria tenuis. Type of assay: cell-based. The conditions noted are these: Alternaria alternata, 336 h, beerwort/peptone agar, 28° C., 2 weeks. How it is done: as §1
Another assay has as its system Aspergillus niger. Kind of assay: MIC on agar, Aspergillus niger. Type of assay: cell-based. The conditions noted are these: 336 h, beerwort/peptone agar, 28° C., 2 weeks. How it is done:
as §1

In brackets after ≈: the same amount, converted by molar mass.

For `CC1=C(C)C(=O)N(SC(F)(Cl)Cl)C1=O` [N-(dichlorofluoromethylthio)-3,4-dimethylmaleimide], the minimum inhibitory concentration (MIC) in the assay on Trichoderma viride is 100 mg/L (≈ 387 µM); in the assay with Aureobasidium pullulans, 0.5 mg/L (≈ 1.94 µM); in the assay on Polyporus versicolor, 7.5 mg/L (≈ 29.1 µM); with Sclerophoma pityophila, 1 mg/L (≈ 3.87 µM); against Chaetomium globosum, 50 mg/L (≈ 194 µM); in the assay with Lentinus tigrinus, 1.5 mg/L (≈ 5.81 µM). The MIC in the assay with Penicillium glaucum was found to be 5 mg/L (≈ 19.4 µM); against slime organisms it was 7.5 mg/L (≈ 29.1 µM); in the assay on Coniophora puteana, 0.75 mg/L (≈ 2.91 µM); with Alternaria tenuis, 0.75 mg/L (≈ 2.91 µM); against Aspergillus niger, 50 mg/L (≈ 194 µM). In [1], the “mould-resistance of paint films” value was “mould-resistant”.

These data come from patent publication US4645776A, “N-(dichlorofluoromethylthio)-3,4-dimethylmaleimide and its use as a fungicide” (Bayer Aktiengesellschaft, priority 1984, dated 1987).
